Assay results as given in US11242335B2, “Fluorine-substituted indazole compounds and uses thereof” (SUNSHINE LAKE PHARMA CO., LTD., priority 2017, dated 2022).

Assays:
[1] = biological target: T1, soluble guanylate cyclase (sGC) expressed by CHO-K1-Rat sGC monoclonal cell line (Rattus norvegicus, UniProt P19686+P20595); assay: Effect on recombinant guanylate cyclase reporter cell line (CHO-K1-Rat sGC, Cisbio cGMP HTRF); assay type: cell-based; conditions: activating soluble guanylate cyclase
T1 construct: expressed in transfected cells; host or cells: CHO-K1
T1 sequence (P19686 1-690): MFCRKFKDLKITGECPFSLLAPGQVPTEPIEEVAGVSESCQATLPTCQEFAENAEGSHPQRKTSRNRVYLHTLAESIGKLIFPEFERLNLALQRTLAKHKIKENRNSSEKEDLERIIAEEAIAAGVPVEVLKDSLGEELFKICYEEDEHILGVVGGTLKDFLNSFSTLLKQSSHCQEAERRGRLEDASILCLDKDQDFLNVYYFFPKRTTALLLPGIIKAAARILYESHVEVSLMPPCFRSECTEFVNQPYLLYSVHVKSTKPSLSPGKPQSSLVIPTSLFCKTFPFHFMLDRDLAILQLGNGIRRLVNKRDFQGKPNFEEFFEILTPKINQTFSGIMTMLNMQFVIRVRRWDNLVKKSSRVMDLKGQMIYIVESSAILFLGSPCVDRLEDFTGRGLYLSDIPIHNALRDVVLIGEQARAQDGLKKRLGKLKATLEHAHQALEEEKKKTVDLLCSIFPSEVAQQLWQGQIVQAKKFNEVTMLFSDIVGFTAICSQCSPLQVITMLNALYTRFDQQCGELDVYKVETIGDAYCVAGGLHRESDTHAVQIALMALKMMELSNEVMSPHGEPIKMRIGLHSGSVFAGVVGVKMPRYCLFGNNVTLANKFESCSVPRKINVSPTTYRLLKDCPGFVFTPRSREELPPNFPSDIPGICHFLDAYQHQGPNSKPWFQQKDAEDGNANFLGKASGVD
T1 sequence (P20595 1-619): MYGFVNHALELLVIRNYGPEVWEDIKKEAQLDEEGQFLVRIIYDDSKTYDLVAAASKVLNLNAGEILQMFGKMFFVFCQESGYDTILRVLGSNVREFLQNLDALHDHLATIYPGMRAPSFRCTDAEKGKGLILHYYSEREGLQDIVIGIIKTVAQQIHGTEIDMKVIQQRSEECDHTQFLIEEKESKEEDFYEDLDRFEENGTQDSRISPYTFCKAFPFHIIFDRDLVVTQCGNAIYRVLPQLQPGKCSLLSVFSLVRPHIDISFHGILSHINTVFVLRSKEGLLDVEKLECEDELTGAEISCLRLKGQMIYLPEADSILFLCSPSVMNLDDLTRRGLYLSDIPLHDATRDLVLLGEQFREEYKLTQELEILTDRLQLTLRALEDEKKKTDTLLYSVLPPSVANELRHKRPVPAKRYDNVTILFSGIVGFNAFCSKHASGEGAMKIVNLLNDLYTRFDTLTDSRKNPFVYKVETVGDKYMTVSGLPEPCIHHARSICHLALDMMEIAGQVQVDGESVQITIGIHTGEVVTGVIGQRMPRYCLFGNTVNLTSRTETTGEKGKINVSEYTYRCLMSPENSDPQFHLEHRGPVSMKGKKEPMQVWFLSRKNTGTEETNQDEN
Text: Transfection of Soluble Guanylate Cyclase (sGC) gene into CHO-K1 cells and selection of cells with stably and highly expressed sGC: Rat sGCα1 and Rat sGCβ1 Genes were synthesized, and then pcDNA3.1(+)-rat sGCα1 and pcDNA3.1/Hygro (+)-rat sGCβ1 plasmid were constructed; the plasmid was co-transfected into CHO-K1 cells, and a positive clone cell line stably expressing CHO-K1-Rat sGC was selected using the Cisbio cGMP HTRF assay kit.
The activity of the compound on the CHO-K1-Rat sGC monoclonal cell line was determined: The CHO-K1-Rat sGC monoclonal cell line was cultured, and used for test operation at degree of fusion of about 70% to 90%. The cells were resuspended in complete medium after TrypLE digestion; the cells were inoculated in a 384-well (low volume tissues culture treated) cell culture plate at a seeding density of 7500/well in 25 μL of complete medium and incubated at 37° C. in 5% CO2 atmosphere for 20 hours; the test compounds were dissolved and dilute with DMSO to give 10 concentration gradients (2× working concentration); 384-well cell culture plates were centrifugated (200 g) for 3 seconds by inversion at RT, medium was removed; The test compounds in each different concentration gradient and corresponding reagent were added into each cell well according to the detection process of Cisbio cGMP HTRF assay kit. The data were collected with Envision HTRF detector and the EC50 value of each compound in activating soluble guanylate cyclase was calculated.

[2] = Pharmacokinetics in male SD rats after intravenous and oral administration; assay type: in vivo; conditions: for F: po 5 mg/kg versus iv 1 mg/kg; for AUC(0-t) / Cmax / Tmax / clearance / half-life / Vd: rat, plasma; for Vd: read-out: Vss
Protocol: Preparation of test compound solution: The test compound was formulated with 5% dimethylsulfoxide, 5% Solutol HS 15 and 90% physiological saline to give solution, which was used for oral and intravenous administration.
Male SD rats weighing 190-250 g were randomly divided into two groups, each group had three members; one group received test compound at a dose of 1.0 mg/kg by intravenous injection, the other group received test compound at a dose of 2.5 or 5.0 mg/kg by oral. After dosing, blood samples were collected at time points of 0.0833, 0.25, 0.5, 1.0, 2.0, 4.0, 7.0 and 24 h. Standard curve was plotted based on concentrations of the samples in a suitable range, the concentrations of test compounds in plasma samples were determined by using AB SCIEX API4000 LC-MS/MS in MRM mode. Pharmacokinetic parameters were calculated according to drug concentration-time curve using a noncompartmental method by WinNonLin 6.3 software.

[3] = biological target: T2, hERG potassium channel (Homo sapiens, UniProt Q12809); assay: Inhibition of hERG potassium channel, manual patch clamp in HEK293 cells; assay type: cell-based; conditions: hERG tail current; HEK293 cells overexpressing hERG; whole cell patch clamp; 22-24° C.
T2 construct: expressed in transfected cells; host or cells: HEK293
T2 sequence (Q12809 whole entry): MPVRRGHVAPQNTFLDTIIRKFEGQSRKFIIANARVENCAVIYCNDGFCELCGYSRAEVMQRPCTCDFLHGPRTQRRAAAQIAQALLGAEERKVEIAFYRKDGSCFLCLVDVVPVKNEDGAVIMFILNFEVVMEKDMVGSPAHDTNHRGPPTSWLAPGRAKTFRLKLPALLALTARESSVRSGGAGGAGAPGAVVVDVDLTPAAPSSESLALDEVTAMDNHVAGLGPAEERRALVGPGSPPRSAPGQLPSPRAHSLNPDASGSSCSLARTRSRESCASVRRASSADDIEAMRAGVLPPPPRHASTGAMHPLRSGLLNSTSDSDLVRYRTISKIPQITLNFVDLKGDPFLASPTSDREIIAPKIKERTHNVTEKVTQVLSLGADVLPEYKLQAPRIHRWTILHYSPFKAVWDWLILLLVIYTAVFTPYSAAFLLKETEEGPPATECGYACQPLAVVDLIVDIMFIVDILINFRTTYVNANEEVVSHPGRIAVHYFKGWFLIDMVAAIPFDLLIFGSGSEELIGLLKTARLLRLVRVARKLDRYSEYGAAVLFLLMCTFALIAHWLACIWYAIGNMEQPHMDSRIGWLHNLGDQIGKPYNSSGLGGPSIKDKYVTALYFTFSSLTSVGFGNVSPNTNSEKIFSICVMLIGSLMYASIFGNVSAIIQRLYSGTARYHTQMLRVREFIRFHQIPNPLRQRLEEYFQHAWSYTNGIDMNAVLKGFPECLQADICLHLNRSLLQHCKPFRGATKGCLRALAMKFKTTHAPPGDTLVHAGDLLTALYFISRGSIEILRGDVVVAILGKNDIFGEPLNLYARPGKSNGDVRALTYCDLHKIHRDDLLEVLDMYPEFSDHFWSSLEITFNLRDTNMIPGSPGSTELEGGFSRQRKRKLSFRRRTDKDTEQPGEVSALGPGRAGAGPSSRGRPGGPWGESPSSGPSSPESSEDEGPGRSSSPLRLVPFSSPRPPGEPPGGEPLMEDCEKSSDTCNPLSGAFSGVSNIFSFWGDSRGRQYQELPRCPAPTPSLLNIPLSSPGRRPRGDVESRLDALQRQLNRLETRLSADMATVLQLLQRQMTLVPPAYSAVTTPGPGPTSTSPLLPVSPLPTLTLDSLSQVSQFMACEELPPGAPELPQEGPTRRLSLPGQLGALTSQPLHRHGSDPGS
Protocol: Each compound was weighed and dissolved in DMSO and diluted with DMSO to a serial solution (30, 10, 3.3, 1.1, 0.37 mM). The above serial solutions were diluted to 1000-fold with the extracellular fluid to prepare test solutions (final concentration was 30, 10, 3.3, 1.1, 0.37 μM respectively).
The HEK293 cells that overexpressed the hERG potassium channel were cultured in a 37° C., 5% CO2 incubator, and the culture medium contained DMEM, 15% fetal bovine serum, and 1% penicillin-streptomycin. When the cell density reached 80% of the culture plate, the cells were digested with trypsin/EDTA and transferred to a centrifuge tube, centrifuged at 1000 rpm for 3 minutes, then supernatant was discarded, and the cell culture medium was added. The cells were mixed uniformly by gently blowing and beating. […]
The whole cell recording mode was used to record the channel current in the experiment. Firstly, the extracellular fluid was perfused (approximately 2 mL per minute) and the data were continuous recorded, and the current was kept steady (the current decay was less than 5% in 5 minutes). […] The extracellular fluid containing the test compound was then perfused and the data were continuous recorded until the compound's inhibitory effect on the hERG current reached a steady state, at this time point the peak value of tail current was the current value after dosing. […]

**Q.** Which results are given for `COC(=O)N(C)c1c(N)nc(-c2nn(Cc3ccccc3F)c3c(F)cc(F)cc23)nc1N` [Example 2, methyl (4,6-diamino-2-(5,7-difluoro-1-(2-fluorobenzyl)-1H-indazol-3-yl)pyrimidin-5-yl)(methyl)carbamate]?
**A.** EC50 [1]: 220 nM; F [2]: 138.6%; AUC(0-t) ([2]; iv, 1 mg/kg): 2020 ng·h/mL; Cmax ([2]; iv, 1 mg/kg): 680 ng/mL; Tmax ([2]; iv, 1 mg/kg): 0.083 h; clearance ([2]; iv, 1 mg/kg): 6.16 mL/min/kg; half-life ([2]; iv, 1 mg/kg): 3.7 h; Vd ([2]; iv, 1 mg/kg): 1.88 L/kg; AUC(0-t) ([2]; po, 5 mg/kg): 14000 ng·h/mL; Cmax ([2]; po, 5 mg/kg): 1130 ng/mL; Tmax ([2]; po, 5 mg/kg): 2 h; half-life ([2]; po, 5 mg/kg): 3.61 h

**Q.** Which results are given for `COC(=O)Nc1c(N)nc(-c2nn(Cc3ccccc3F)c3cc(F)ccc23)nc1N` [Example 5, methyl (4,6-diamino-2-(6-fluoro-1-(2-fluorobenzyl)-1H-indazol-3-yl)pyrimidin-5-yl)carbamate]?
**A.** IC50 [3]: > 30000 nM; F [2]: 93.4%; AUC(0-t) ([2]; iv, 1 mg/kg): 10300 ng·h/mL; Cmax ([2]; iv, 1 mg/kg): 2820 ng/mL; Tmax ([2]; iv, 1 mg/kg): 0.083 h; clearance ([2]; iv, 1 mg/kg): 1.59 mL/min/kg; half-life ([2]; iv, 1 mg/kg): 4.49 h; Vd ([2]; iv, 1 mg/kg): 0.483 L/kg; AUC(0-t) ([2]; po, 5 mg/kg): 39700 ng·h/mL; Cmax ([2]; po, 5 mg/kg): 2690 ng/mL; Tmax ([2]; po, 5 mg/kg): 3.5 h; half-life ([2]; po, 5 mg/kg): 10.9 h

**Q.** Which EC50 [1] does the source give for `COC(=O)N(C)c1c(N)nc(-c2nn(Cc3ccccc3F)c3cc(F)ccc23)nc1N` [Example 6, methyl (4,6-diamino-2-(6-fluoro-1-(2-fluorobenzyl)-1H-indazol-3-yl)pyrimidin-5-yl)(methyl)carbamate] here?
**A.** Its EC50 is 230 nM.

**Q.** And the F [2]?
**A.** Its F is 135.3%.

**Q.** And the AUC(0-t) ([2]; iv, 1 mg/kg)?
**A.** The AUC(0-t) was 2700 ng·h/mL.

**Q.** And the Cmax ([2]; iv, 1 mg/kg)?
**A.** The Cmax was 1310 ng/mL.

**Q.** What about the Tmax ([2]; iv, 1 mg/kg) of the same compound?
**A.** The Tmax was 0.083 h.

**Q.** What about the clearance ([2]; iv, 1 mg/kg) of the same compound?
**A.** Its clearance is 6.18 mL/min/kg.

**Q.** What about the half-life ([2]; iv, 1 mg/kg) of the same compound?
**A.** Its half-life is 1.57 h.

**Q.** And the Vd ([2]; iv, 1 mg/kg)?
**A.** The Vd was 1.07 L/kg.

**Q.** And the AUC(0-t) ([2]; po, 5 mg/kg)?
**A.** Its AUC(0-t) is 18300 ng·h/mL.

**Q.** And the Cmax ([2]; po, 5 mg/kg)?
**A.** The Cmax was 2480 ng/mL.

**Q.** And the Tmax ([2]; po, 5 mg/kg)?
**A.** Its Tmax is 1.33 h.

**Q.** What about the half-life ([2]; po, 5 mg/kg) of the same compound?
**A.** The half-life was 2.98 h.

**Q.** Which results are given for `COC(=O)N(C)c1c(N)nc(-c2nn(Cc3ccccc3F)c3c(F)cccc23)nc1N` [Example 11, methyl (4,6-diamino-2-(7-fluoro-1-(2-fluorobenzyl)-1H-indazol-3-yl)pyrimidin-5-yl)(methyl)carbamate]?
**A.** EC50 [1]: 82 nM; F [2]: 107.3%; AUC(0-t) ([2]; iv, 1 mg/kg): 1220 ng·h/mL; Cmax ([2]; iv, 1 mg/kg): 834 ng/mL; Tmax ([2]; iv, 1 mg/kg): 0.083 h; clearance ([2]; iv, 1 mg/kg): 13.4 mL/min/kg; half-life ([2]; iv, 1 mg/kg): 1.37 h; Vd ([2]; iv, 1 mg/kg): 1.35 L/kg; AUC(0-t) ([2]; po, 5 mg/kg): 6580 ng·h/mL; Cmax ([2]; po, 5 mg/kg): 1080 ng/mL; Tmax ([2]; po, 5 mg/kg): 1.67 h; half-life ([2]; po, 5 mg/kg): 2.45 h

**Q.** With `Nc1nc(-c2nn(Cc3ccccc3F)c3c(F)cccc23)nc(N)c1N1CCCS1(=O)=O` [Example 13, 2-(4,6-diamino-2-(7-fluoro-1-(2-fluorobenzyl)-1H-indazol-3-yl)pyrimidin-5-yl)isothiazolidine 1,1-dioxide] as the compound, how does the EC50 [1] read?
**A.** Its EC50 is 36 nM.

**Q.** What about the F [2] of the same compound?
**A.** The F was 109.8%.

**Q.** What about the AUC(0-t) ([2]; iv, 1 mg/kg) of the same compound?
**A.** The AUC(0-t) was 921 ng·h/mL.

**Q.** What about the Cmax ([2]; iv, 1 mg/kg) of the same compound?
**A.** The Cmax was 778 ng/mL.

**Q.** And the Tmax ([2]; iv, 1 mg/kg)?
**A.** The Tmax was 0.083 h.

**Q.** And the half-life ([2]; iv, 1 mg/kg)?
**A.** Its half-life is 0.916 h.

**Q.** And the Vd ([2]; iv, 1 mg/kg)?
**A.** Its Vd is 6.38 L/kg.

**Q.** What about the AUC(0-t) ([2]; po, 5 mg/kg) of the same compound?
**A.** Its AUC(0-t) is 5010 ng·h/mL.

**Q.** What about the Cmax ([2]; po, 5 mg/kg) of the same compound?
**A.** The Cmax was 1170 ng/mL.

**Q.** What about the Tmax ([2]; po, 5 mg/kg) of the same compound?
**A.** Its Tmax is 1.67 h.

**Q.** And the half-life ([2]; po, 5 mg/kg)?
**A.** The half-life was 1.57 h.

**Q.** What does the source list for `Nc1nc(-c2nn(Cc3ccccc3F)c3c(F)cccc23)nc(N)c1N1CCOC1=O` [Example 15, 3-(4,6-diamino-2-(7-fluoro-1-(2-fluorobenzyl)-1H-indazol-3-yl)pyrimidin-5-yl)oxazolidin-2-one]?
**A.** EC50 [1]: 300 nM; F [2]: 86%; AUC(0-t) ([2]; iv, 1 mg/kg): 2060 ng·h/mL; Cmax ([2]; iv, 1 mg/kg): 981 ng/mL; Tmax ([2]; iv, 1 mg/kg): 0.083 h; clearance ([2]; iv, 1 mg/kg): 7.91 mL/min/kg; half-life ([2]; iv, 1 mg/kg): 5.56 h; Vd ([2]; iv, 1 mg/kg): 2.03 L/kg; AUC(0-t) ([2]; po, 5 mg/kg): 8860 ng·h/mL; Cmax ([2]; po, 5 mg/kg): 768 ng/mL; Tmax ([2]; po, 5 mg/kg): 3 h; half-life ([2]; po, 5 mg/kg): 3.13 h
